IC50 data for one compound are collected here from publication PMC9007350, “Aurintricarboxylic acid is a canonical disruptor of the TAZ-TEAD transcriptional complex” (PLoS ONE, 2022).

This assay has as its target T1, TAZ-TEAD complex (full-length His-TAZ and FLAG-TEAD4) (Homo sapiens, UniProt Q15561).
T1 construct: human TEAD4 (1–434) (UniProt—Q15561); strep (N, cleaved yes); made in house; host or cells: Escherichia coli BL21(DE3)pLysS
Briefly: TAZ-TEAD AlphaLISA assay. Type of assay: binding. The conditions noted are these: 10 nM TAZ, 15 nM TEAD4. From the text: The cDNAs of human TEAD4 (1–434) (UniProt—Q15561) and TAZ (UniProt—Q9GZV5) were codon-optimized according to a proprietary algorithm developed by DAPCEL, Inc, synthesized, and inserted into the pET-3a vector between restriction sites NdeI and BamHI (GenScript). The final construct contained a N-terminal strep-TEV-FLAG tag for TEAD4, a 6x His tag at the N-terminus and a strep tag at the C-terminus of TAZ (GenScript).
Full-length TAZ and TEAD proteins were used in this assay. The codon-optimized cDNAs yielded sufficient protein amounts to carry out the high-throughput screen (S1A Fig).
Purified full-length His-TAZ and FLAG-TEAD4 proteins were mixed with nickel chelate AlphaLISA Acceptor Beads and anti-FLAG Alpha Donor Beads (PerkinElmer) in alpha assay buffer (10mM Tris pH 8.0, 150mM NaCl, 0.1% BSA, 0.01% Tween 20, 10 mM DTT). To determine the optimum protein concentration that produced the highest total signal intensity, His-TAZ was used at a concentration range of 0 nM to 20 nM and FLAG-TEAD4 at 0.1 nM to 1000 nM. The maximal signal occurred at 10 nM TAZ and 15 nM TEAD4 (S1B Fig). Then, compounds from the library plates were added at a final concentration of 10 μM. The mixtures were incubated in the dark for 2h at room temperature and emission at 615 nm was measured using the alpha-compatible EnSpire (PerkinElmer) and Synergy Neo2 (BioTek) multimode plate readers. […]

T1 sequence (Q15561 whole entry, one chain of several): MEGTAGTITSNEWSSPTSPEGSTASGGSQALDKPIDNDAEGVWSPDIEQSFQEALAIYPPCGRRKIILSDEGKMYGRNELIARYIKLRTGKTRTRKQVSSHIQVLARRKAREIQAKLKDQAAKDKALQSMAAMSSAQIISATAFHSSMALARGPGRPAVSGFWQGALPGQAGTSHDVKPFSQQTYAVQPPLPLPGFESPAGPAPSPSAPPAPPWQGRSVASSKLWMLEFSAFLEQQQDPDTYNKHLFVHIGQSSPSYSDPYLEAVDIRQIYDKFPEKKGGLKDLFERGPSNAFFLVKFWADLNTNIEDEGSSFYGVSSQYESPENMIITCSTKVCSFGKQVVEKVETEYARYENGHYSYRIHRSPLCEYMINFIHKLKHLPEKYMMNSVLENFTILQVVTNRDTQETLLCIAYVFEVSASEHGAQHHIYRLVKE

For the compound `O=C(O)C1=CC(=C(c2ccc(O)c(C(=O)O)c2)c2ccc(O)c(C(=O)O)c2)C=CC1=O` [ATA, aurintricarboxylic acid], the half-maximal inhibitory concentration (IC50) is 0.035 µM.
